Laboratory results published in patent US8735444B2, “Fluorinated rhodamines as photostable fluorescent dyes for labelling and imaging techniques” (Max-Planck-Gesellschaft zur Foerderung der Wissenschaften …, priority 2009, dated 2014).
Marks after values point to notes of the source that are not given here.

Columns and labels:
[1] = Ground state depletion (GSDIM) pump-probe measurements in PVA matrix; format: physicochemical
From the text: In this method, “off” and “on” switching of the fluorescence is achieved by transiently shelving the fluorophores into a meta-stable dark state. Upon the return of only a few isolated single molecules to the fluorescent singlet state, positions of these single light emitting spots can be imaged on a camera and localized with high precision. Upon repeating this procedure and acquiring many pictures, a super-resolution image can be reconstructed from the localized positions. A prerequisite of this method is that >70% of the ensemble of the applied fluorescent dyes can be shelved into a dark state at a time (to ensure the detection of isolated fluorescent spots at a time in a densely labeled sample) and that the fluorophores are bright enough, i.e., that they emit enough photons while being in the singlet on-state (to ensure high precision of localization).
Switching off of the laser leads to a recovery of the fluorescence ensemble within a characteristic recovery time of 150-450 ms (Table 5), indicating the shelving into a metastable dark state. The measurements were performed in a pump-probe mode, i.e., the residual level of fluorescence was probed with I<100 W/cm^2 for 0.5 ms after strong irradiation for 10 ms with the given laser intensity in Table 5.
Furthermore, recovery of the fluorescence can be accelerated by addition of UV light, which leads to an optically-induced depopulation of the dark states. Already 2-3 kW/cm^2 of 375 nm light recovers the fluorescence within an irradiation period of 0.5 ms. […] The accelerated recovery is important for samples with low density of labels, where the addition of UV light and thus acceleration of the return from a dark state helps to accelerate image acquisition. Photostabilities of the studied fluorescent dyes under the GSDIM conditions are different: 15-50 pump-probe cycles with a pump intensity of 14-110 kW/cm^2 bleach 30-95% of the whole ensemble.

[2] = Fluorescence correlation spectroscopy (FCS) in aqueous solutions; format: physicochemical; conditions: aqueous solution, intensity range 0.1-2.0 MW/cm^2
From the text: FIG. 10. FCS curves obtained from Rh110-CO2 (left plot) and compound 17 (right plot), at low (0.1 MW/cm^2) and high (2 MW/cm^2) excitation intensity (dots: experimental data; lines: best fits).
In combination with modern highly sensitive detection technologies recently developed, the observation of a single or a few molecules has become readily available. Several techniques based on these measurements [such as the fluorescence fluctuation spectroscopy and fluorescence correlation spectroscopy (FCS)] advantageously reveal molecular properties otherwise hidden by averaging the ensemble. A common requirement for experiments involving a few or single molecules is the use of fluorescent dyes with high photostability especially at high excitation intensities of >100 kW/cm^2. For biological applications the use of water as a solvent is almost imperative. Low solubility in water is often associated with a high bleaching ratio, or lower fluorescence quantum yield in aqueous medium compared with that in organic solvents. […]
The excitation intensity of 115 kW/cm^2 (a value normally used in routinely FCS measurements) and at an excitation intensity of about an order of magnitude higher (2 MW/cm^2) have been used. […] An increase in the fraction of molecules in the triplet state can also be detected. […]

[3] = Spectral properties of the fluorinated rhodamines (absorption, emission, quantum yield, lifetime); format: physicochemical
From the text: Extinction coefficients (of the long wavelength maximum) which are lower than ca. 8×10^4 M^−1 cm^−1 indicate the presence of the closed non-fluorescent form.

[4] = Photoresistance in aqueous solutions irradiated with 488 nm light (3 W/cm^2); format: physicochemical; conditions: colored water solutions, several hours, 488 nm line of an Argon laser
From the text: The compounds also display an outstanding photostability when irradiated for a prolonged time. […] The initial absorption at the irradiation wavelength was the same for all solutions. […] After two hours of irradiation, compounds 14 and 15 retain more than 50% of the initial emission intensity and compound 14a has about 90% of the initial signal left.
FIG. 2. Photoresistance of selected compounds (14-17, 14a, and 16a in Table 2), and some commercially available fluorophores with the similar spectral properties (Alexa Fluor 488®, Rhodamine Green®, Oregon Green 488®, and Fluorescein) in aqueous solutions irradiated with 488 nm light (3 W/cm^2)

[5] = test system: living mammalian cells (PtK2); experiment: Membrane-permeation experiments in living cells, epifluorescence microscope; format: cell-based; conditions: 15 minutes
Procedure: FIG. 9. Membrane-permeation experiments of the presented dyes. Living mammalian cells (PtK2) were incubated for 15 minutes with a 50 μg dye/ml solution. The subcellular localization of the dye was imaged in an epifluorescence microscope. A: 46-H—CH2 CF3—H—H (16); B: 42-COOH (15); C: 23; D: 37-Me-Me-H (27); E: 42-H (14)-methylester; F: 33-H—H (18).
The most important prerequisite for fluorophores used in these labeling strategies is that sufficient amounts of it need to pass cellular membrane(s) to reach the target protein. In order to asses the permeability of the cell membrane to the fluorescent dyes described in the presented invention, living mammalian cells (PtK2) previously grown overnight on cover slips, were first subjected to either 500 μg dye/ml or 50 μg dye/ml in growth medium for 15 minutes. (The amount of dye used for labeling of SNAP-fusion proteins is below 5 μg dye/ml.) Then, the cells were washed with growth medium (without dye) for 15 minutes, and imaged using an epifluorescence microscope.

Compound	λem ([1]; PVA matrix table) [nm]	λex ([1]; PVA matrix table) [nm]	Γfl, remaining fluorescence after 5 measurement cycles ([1]; PVA matrix, at one spot with the given power density) [%]	Rfl, t=0, residual fluorescence after the pump-pulse ([1]; PVA matrix, pump-pulse power density per dye 14-110 kW/cm^2) [%]	change of diffusion time with excitation intensity (bleaching) [2]	ABSORPTION λMAX ([3]; aqueous buffer at pH 7) [nm]	EMISSION λMAX ([3]; aqueous buffer at pH 7)	ΦFL ([3]; aqueous buffer at pH 7)	τFL ([3]; aqueous buffer at pH 7) [ns]	ABSORPTION ε ([3]; methanol) [M⁻¹ cm⁻¹]	ABSORPTION λMAX ([3]; methanol) [nm]	EMISSION λMAX ([3]; methanol)	change in emission on irradiation [4]	Structures stained in living cells ([5]; 50 μg dye/ml)	Structures stained in living cells ([5]; 500 μg dye/ml)
O=C(O)c1ccc2c(c1)C(=O)OC21c2ccc(NCC(F)(F)F)c(S(=O)(=O)O)c2Oc2c1ccc(NCC(F)(F)F)c2S(=O)(=O)O [Compound 17, 5′-Carboxy-4,5-disulfo-N,N′-bis(2,2,2-trifluoroethyl)-rhodamine]	524	501	40	25	no significant change in the diffusion time	501	524^a, 524^b nm	0.96	3.9	86000	511	524^a, 524^b nm	without any significant changes in their emission	Dim cytoplasmatic stain with dots	Bright background staining visible.
carboxy rhodamine 110 [Rh110-CO2, reference compound]	–	–	–	–	shortening of the apparent diffusion characteristic time	–	–	–	–	–	–	–	–	–	–
